# Test results from ChEMBL document CHEMBL1130278, “Synthesis and structure-activity relationships of 3,7-dimethyl-1-propargylxanthine derivatives, A2A-selective adenosine receptor antagonists” (J Med Chem, 1997).
# Columns and labels:
# Adenosine receptor A3 [1] = target: T1, Adenosine receptor A3 (Rattus norvegicus, UniProt P28647); assay: Inhibitory activity against rat adenosine A3 receptor; inactive up to 10 uM concentration; IA = Inactive
# T1 sequence (P28647 whole entry): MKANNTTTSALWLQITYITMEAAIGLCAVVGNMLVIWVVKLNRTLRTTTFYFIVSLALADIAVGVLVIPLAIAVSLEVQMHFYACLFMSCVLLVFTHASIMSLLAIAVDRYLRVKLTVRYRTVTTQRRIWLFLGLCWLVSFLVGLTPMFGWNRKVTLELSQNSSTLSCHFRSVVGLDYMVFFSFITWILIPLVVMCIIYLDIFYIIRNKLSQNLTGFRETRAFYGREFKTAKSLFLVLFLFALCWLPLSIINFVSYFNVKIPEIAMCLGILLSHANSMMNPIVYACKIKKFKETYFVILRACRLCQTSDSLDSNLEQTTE
# [2] = target: T2, Adenosine receptor A1 (Rattus norvegicus) (UniProt P25099); assay: Inhibition of [3H]CHA binding to Adenosine A1 receptor of rat brain cortical membranes; format: cell membranes; conditions: Membrane, concentration not given here
# T2 sequence (whole entry): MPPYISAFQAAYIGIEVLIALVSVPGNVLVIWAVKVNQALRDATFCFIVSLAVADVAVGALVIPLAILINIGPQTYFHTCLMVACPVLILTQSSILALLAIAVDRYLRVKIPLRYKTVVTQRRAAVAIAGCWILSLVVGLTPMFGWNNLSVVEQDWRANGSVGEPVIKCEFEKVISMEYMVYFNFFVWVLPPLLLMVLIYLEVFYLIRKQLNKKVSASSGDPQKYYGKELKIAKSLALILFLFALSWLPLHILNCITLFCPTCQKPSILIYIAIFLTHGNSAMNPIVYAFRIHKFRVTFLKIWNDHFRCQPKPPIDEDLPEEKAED
# Adenosine receptor A1 [3] = target: T3, Adenosine receptor A1 (Rattus norvegicus, UniProt P25099); assay: Ability to inhibit binding of [3H]CHA to adenosine A1 receptor in rat brain cortical membranes.; format: cell membranes, Membrane
# T3 sequence (P25099 whole entry): T2 sequence (whole entry)
# Adenosine receptor A2a [4] = target: T4, Adenosine receptor A2a (Rattus norvegicus, UniProt P30543)
# Description: Ability to inhibit binding of [3H]-CGS- 21680 to adenosine A2A receptor in rat brain striatal membranes.
# Adenosine receptor A1 [5] = target: T3, Adenosine receptor A1; assay: Ability to inhibit binding of [3H]R-PIA to Adenosine A1 receptor in rat brain cortical membranes; format: cell membranes, Membrane
# Adenosine receptor A2a [6] = target: T4, Adenosine receptor A2a; remark: listed apart in the source
# Description: Ability to inhibit binding of [3H]NECA to Adenosine A2A receptor in rat brain striatal membranes
# Adenosine receptor A2b = target: T5, Adenosine receptor A2b (Homo sapiens, UniProt P29275); assay: Binding affinity for human Adenosine A2B receptor at 10 uM; IA = Inactive
# T5 sequence (P29275 whole entry): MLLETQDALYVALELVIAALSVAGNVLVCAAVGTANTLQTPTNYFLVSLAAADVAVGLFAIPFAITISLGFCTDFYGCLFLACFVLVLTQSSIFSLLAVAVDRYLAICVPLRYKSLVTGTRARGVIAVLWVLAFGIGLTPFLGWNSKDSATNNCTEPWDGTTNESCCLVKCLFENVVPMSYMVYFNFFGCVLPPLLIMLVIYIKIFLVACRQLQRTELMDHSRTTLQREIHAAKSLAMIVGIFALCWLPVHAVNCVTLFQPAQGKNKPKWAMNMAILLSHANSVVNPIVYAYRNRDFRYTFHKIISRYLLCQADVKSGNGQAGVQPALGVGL
# Adenosine receptor A3 [7] = target: T6, Adenosine receptor A3 (Homo sapiens, UniProt P0DMS8); assay: Binding affinity for human Adenosine A3 receptor at 10 uM; IA = Inactive
# T6 sequence (P0DMS8 whole entry): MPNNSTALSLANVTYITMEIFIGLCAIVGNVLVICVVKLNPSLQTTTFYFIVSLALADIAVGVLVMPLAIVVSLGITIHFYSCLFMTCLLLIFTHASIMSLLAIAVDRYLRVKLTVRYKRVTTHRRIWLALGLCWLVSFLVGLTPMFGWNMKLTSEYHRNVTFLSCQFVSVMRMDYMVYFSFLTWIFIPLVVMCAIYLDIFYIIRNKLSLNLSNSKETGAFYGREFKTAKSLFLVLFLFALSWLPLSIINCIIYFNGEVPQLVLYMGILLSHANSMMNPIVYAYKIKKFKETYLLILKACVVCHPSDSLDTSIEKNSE
# T4 sequence (P30543 whole entry): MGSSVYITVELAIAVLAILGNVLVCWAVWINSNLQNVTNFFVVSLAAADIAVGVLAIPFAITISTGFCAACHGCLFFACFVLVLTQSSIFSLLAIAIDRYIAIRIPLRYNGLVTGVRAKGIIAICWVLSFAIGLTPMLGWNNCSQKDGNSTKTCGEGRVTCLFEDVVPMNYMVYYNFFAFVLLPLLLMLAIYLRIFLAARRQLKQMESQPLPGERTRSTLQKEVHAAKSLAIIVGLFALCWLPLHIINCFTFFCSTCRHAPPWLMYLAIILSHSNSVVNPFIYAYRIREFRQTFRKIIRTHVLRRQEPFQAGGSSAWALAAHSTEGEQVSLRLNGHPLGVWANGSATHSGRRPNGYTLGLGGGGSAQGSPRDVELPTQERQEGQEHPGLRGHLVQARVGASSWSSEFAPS
Compound,Ki (Adenosine receptor A1 [3]),Ki (Adenosine receptor A2a [4]),also measured
Cn1c(=O)c2c(nc(/C=C/c3cccc(Cl)c3)n2C)n(C)c1=O,,,Ki (Adenosine receptor A3 [1]): Not Active; inhibition [2]: 17%
C#CCn1c(-c2ccccc2)nc2c1c(=O)n(C)c(=O)n2CC(C)C,2800 nM,3500 nM,
C#CCn1c(=O)c2c(nc(/C=C/c3ccc4c(c3)OCO4)n2C)n(C)c1=O,1500 nM,35 nM,
COc1ccc(/C=C/c2nc3c(c(=O)n(C)c(=O)n3C)n2C)cc1OC,9600 nM,18 nM,
C#CCn1c(=O)c2[nH]cnc2n(Cc2ccccc2)c1=O,860 nM,880 nM,
C#CCn1c(=O)c2c(nc(/C=C/c3cccc(Cl)c3)n2C)n(CCC)c1=O,102 nM,5.1 nM,
C#CCn1c(=O)c2c(nc(/C=C/c3cccc(Cl)c3)n2C)n(Cc2ccccc2)c1=O,2300 nM,68 nM,
C#CCn1c(=O)c2c(nc(/C=C/c3cccc(Cl)c3)n2C)n(C)c1=O,1300 nM,13 nM,Ki (Adenosine receptor A1 [5]): 2500 nM; Ki (Adenosine receptor A2a [6]): 0.047 µM
C#CCn1c(=O)c2c(nc(/C=C/c3ccco3)n2C)n(C)c1=O,1900 nM,250 nM,
C#CCn1c(=O)c2[nH]c(/C=C/c3cccc(Cl)c3)nc2n(C)c1=O,,,Ki (Adenosine receptor A1 [5]): 250 nM; Ki (Adenosine receptor A2a [6]): 0.41 µM
C#CCn1c(=O)[nH]c2nc(-c3cccs3)[nH]c2c1=O,180 nM,560 nM,Ki (Adenosine receptor A1 [5]): 120 nM; Ki (Adenosine receptor A2a [6]): 5.1 µM
CCCn1c(=O)c2c(nc(/C=C/c3ccc(OC)c(OC)c3)n2C)n(CCC)c1=O,260 nM,,
C#CCn1c(=O)[nH]c2[nH]c(/C=C/c3ccccc3)nc2c1=O,1300 nM,310 nM,Ki (Adenosine receptor A1 [5]): 2100 nM; Ki (Adenosine receptor A2a [6]): 1.9 µM
C=CCn1c(=O)c2c(nc(/C=C/c3ccccc3)n2C)n(C)c1=O,9200 nM,63 nM,
C#CCn1c(=O)c2c(nc(-c3ccccc3)n2C)n(C)c1=O,3200 nM,3300 nM,Ki (Adenosine receptor A2a [6]): 6.4 µM
C#CCn1c(=O)c2c(nc(/C=C/c3cccc(Cl)c3)n2C)n(CC(C)C)c1=O,240 nM,15 nM,

Compound,Ki (Adenosine receptor A1 [3]),Ki (Adenosine receptor A2a [4]),also measured
Cn1c(=O)c2c(nc(-c3ccccc3)n2C)n(C)c1=O,33000 nM,19000 nM,Ki (Adenosine receptor A2a [6]): 25 µM
C#CCn1c(=O)c2[nH]cnc2n(C)c1=O,,,Ki (Adenosine receptor A2a [6]): 4.8 µM
C#CCn1c(=O)c2c(nc(-c3cccs3)n2C)n(C)c1=O,950 nM,1800 nM,
C#CCn1c(=O)c2c(ncn2C)n(C)c1=O,12000 nM,8600 nM,
C#CCn1c(=O)c2[nH]c(/C=C/c3cccc(Cl)c3)nc2n(CC(C)C)c1=O,83 nM,46 nM,
CCCn1c(=O)c2c(nc(/C=C/c3cccc(Cl)c3)n2C)n(C)c1=O,540 nM,31 nM,
C#CCn1c(=O)c2c(nc(/C=C/c3cccc(Br)c3)n2C)n(C)c1=O,1200 nM,8.2 nM,Ki (Adenosine receptor A2b): Not Active; Ki (Adenosine receptor A3 [7]): Not Active
C#CCn1c(=O)c2c(nc(/C=C/c3ccc(OC)c(OC)c3)n2C)n(C)c1=O,2500 nM,15 nM,
C#CCn1c(=O)c2[nH]c(/C=C/c3ccc4c(c3)OCO4)nc2n(C)c1=O,840 nM,170 nM,
C#CCn1c(=O)c2c(nc(/C=C/c3cccs3)n2C)n(C)c1=O,4100 nM,340 nM,
C#CCn1c(=O)c2c(nc(/C=C/c3ccccc3)n2C)n(C)c1=O,1100 nM,27 nM,Ki (Adenosine receptor A1 [5]): 2700 nM; Ki (Adenosine receptor A2a [6]): 0.14 µM
C#CCn1c(=O)c2c(nc(C3CCCCC3)n2C)n(C)c1=O,2800 nM,4500 nM,
C#CCn1c(=O)c2c(nc(/C=C/c3ccsc3)n2C)n(C)c1=O,750 nM,24 nM,
CC(C)Cn1c(=O)n(C)c(=O)c2c1nc(-c1ccccc1)n2C,4400 nM,14000 nM,
C#CCn1c(=O)c2c(nc(/C=C/c3cccc(Cl)c3)n2CC#C)n(C)c1=O,200 nM,61 nM,
